Results: patent US20040253268A1, “Biological compositions and methods for treatment of uterine cancer” (priority 2003, published 2004)

What was measured:
[1] = system: uterine cancer cell line HTB-114; experiment: Survival in kun ming mouse model of human uterine cancer (Example 9); assay type: in vivo; conditions: 2AY/2NY 0.5 ml/day oral; for Number of live animals remaining in the groups after 30 days of treatment: 30 mice per group, 2VCR 4.5 mg/kg/day i.v.
Method: The following example illustrates the benefit of a biological composition of the invention in a kun ming mouse model of human uterine cancer. The survival time of mice after tumor injection and treatment was studied.
The biological composition comprising 10^8 cells per ml of activated and conditioned yeast cells of the strain Saccharomyces cartsbergensis Hansen strain AS2.605 was prepared by the methods described in Section 5.1 and subsections therein.
The animals were prepared in a similar manner as described in Section 8.1.
The mice injected with tumor cells were immediately divided into 4 experimental groups of ten mice per group and one control group. The four experimental groups were triplicated (i.e., using a total of 120 mice in the experimental groups). In group 2AY, the mice received 0.5 ml of the biological composition once per day. In group 2NY, the mice received 0.5 ml of the untreated yeast cells once per day. In group 2VCR, the mice were injected intravenously with 4.5 mg of […] (VCR) per kg body weight per day. In group 2CK1, the mice received 0.5 ml of physiological saline once per day.
(§1) The mice received the biological composition, untreated yeast cells, VCR or saline on the same day as the tumor cells were transplanted. The mice in group 2CK2 also started receiving saline on the same day as the other four groups. The biological composition, untreated yeast cells and saline were administered orally by a feeding tube and the VCR by intravenous injection for 30 consecutive days. The mice were observed over 6 months from the day of tumor inoculation and survival was recorded. The weight of the mice and the weight of the tumor were determined by standard techniques.

[2] = system: uterine cancer cell line HTB-114; experiment: Tumor growth in kun ming mouse model of human uterine cancer (Example 8); assay type: in vivo; conditions: day 31 after tumor inoculation; 30 days dosing; AY/NY 0.3 ml/day oral, VCR 3 mg/kg/day i.v.
Description: The following example illustrates the benefit of a biological composition of the invention in a kun ming mouse model of human uterine cancer. The growth of the tumor in the mice was studied.
Murine transplantable uterine cancer type HTB-114 closely resembles the human uterine cancer pathology. The uterine cancer cell line HTB-114 can be ordered from the American Type Culture Collection.
(§2) The biological composition comprising 10^8 cells per ml of activated and conditioned yeast cells of the strain Saccharomyces carlsbergensis Hansen strain AS2.605 was prepared by the methods described in Section 5.1 and subsections therein.
(§3) The animals used to generate the uterine cancer cells for the experiments were female kun ming mouse (obtainable from the Chinese Academy of Military Medical Sciences, Beijing, China), 5 to 6 months, having an average body weight of about 20 to 22 gram. About 1.2×10^7 viable tumor cells of the uterine cancer cell line HTB-114 (obtainable from the Cancer Institute, Chinese Academy of Medical Sciences, Beijing, China) in about 0.2 ml culture suspension were injected subcutaneously into the animals. […]
The mice received the biological composition, untreated yeast cells, VCR or saline on the same day as the tumor cells were transplanted. […] The weight of the mice and the weight of the tumor were determined by standard techniques.

[3] = system: uterine cancer cell line CRL-1622; experiment: Tumor growth in 615 strain mouse model of human uterine cancer (Example 6); assay type: in vivo, 615 mice; conditions: day 31 after tumor inoculation; 30 days dosing; AY/NY 0.3 ml/day oral, MMC 0.8 mg/kg/day s.c.
Description: The following example illustrates the benefit of a biological composition of the invention in a 615 strain mouse model of human uterine cancer. The growth of the tumor in the mice was studied.
Murine transplantable uterine cancer type CRL-1622 closely resembles the human uterine cancer pathology. The uterine cancer cell line CRL-1622 can be ordered from the American Type Culture Collection.
as §2
as §3, with “615 mice” for “kun ming mouse”, “4” for “5”, “CRL-1 622” for “HTB-114”
The mice received the biological composition, untreated yeast cells, MMC or saline on the same day as the tumor cells were transplanted. […] The weight of the mice and the weight of the tumor were determined by standard techniques.

[4] = system: uterine cancer cell line CRL-1622; experiment: Survival in 615 strain mouse model of human uterine cancer (Example 7); assay type: in vivo; conditions: 2AY/2NY 0.5 ml/day oral; for Number of live animals remaining in the groups after 30 days of treatment: 30 mice per group, 2MMC 1.2 mg/kg/day s.c.
Method: The following example illustrates the benefit of a biological composition of the invention in a model of human uterine cancer in a 615 strain mouse. The survival time of mice after tumor injection and treatment was studied.
as §2
The animals were prepared in a similar manner as described in Section 6.1. 7.2 Experimental Design The mice injected with tumor cells were immediately divided into 4 experimental groups of ten mice per group and one control group. The four experimental groups were triplicated (i.e., using a total of 120 mice in the experimental groups). In group 2AY, the mice received 0.5 ml of the biological composition once per day. In group 2NY, the mice received 0.5 ml of the untreated yeast cells once per day. In group 2MMC, the mice were injected subcutaneously with 1.2 mg of mitomycin C (MMC) per kg body weight per day. In group 2CK1, the mice received 0.5 ml of physiological saline once per day.
as §1, with “MMC” for “VCR”, “subcutaneous” for “intravenous”

[5] = 0 month after cessation of treatment
[6] = 1 month after cessation of treatment
[7] = 2 months after cessation of treatment
[8] = 3 months after cessation of treatment
[9] = 4 months after cessation of treatment
[10] = 5 months after cessation of treatment
[11] = 6 months after cessation of treatment
[12] = surviving mice after 6 months observation, 2VCR 4.5 mg/kg/day i.v. for 30 days
[13] = surviving mice after 6 months observation, 2MMC 1.2 mg/kg/day s.c. for 30 days

CC[C@]1(O)C[C@@H]2CN(CCc3c([nH]c4ccccc34)[C@@](C(=O)OC)(c3cc4c(cc3OC)N(C)[C@H]3[C@@](O)(C(=O)OC)[C@H](OC(C)=O)[C@]5(CC)C=CCN6CC[C@]43[C@@H]65)C2)C1 [VCR, vinblastine]
Number of live animals remaining in the groups after 30 days of treatment [1, 5]: 30 | Number of live animals remaining in the groups after 30 days of treatment [1, 6]: 28 | survival time ([1]; 2VCR 4.5 mg/kg/day i.v. for 30 days, observed over 6 months): all died during the experiment | Number of live animals remaining in the groups after 30 days of treatment [1, 7]: 19 | Number of live animals remaining in the groups after 30 days of treatment [1, 8]: 11 | Number of live animals remaining in the groups after 30 days of treatment [1, 9]: 3 | Number of live animals remaining in the groups after 30 days of treatment [1, 10]: 0 | Number of live animals remaining in the groups after 30 days of treatment [1, 11]: 0 | mean weight of mice and standard deviation [1, 12]: all animals dead | mean weight of tumor nodules and standard deviation [1, 12]: all animals dead | mean weight of mice and standard deviation [2]: 18.3 ± 3.3 g | mean weight of tumor nodules and standard deviation [2]: 4.36 ± 2.45 g

CO[C@@]12[C@H](COC(N)=O)C3=C(C(=O)C(C)=C(N)C3=O)N1C[C@@H]1N[C@@H]12 [MMC, mitomycin C]
mean weight of mice and standard deviation [3]: 18.3 ± 3.1 g | mean weight of tumor nodules and standard deviation [3]: 3.56 ± 2.32 mg | Number of live animals remaining in the groups after 30 days of treatment [4, 5]: 30 | Number of live animals remaining in the groups after 30 days of treatment [4, 6]: 28 | survival time ([4]; 2MMC 1.2 mg/kg/day s.c. for 30 days, observed over 6 months): all died during the experiment | Number of live animals remaining in the groups after 30 days of treatment [4, 7]: 26 | Number of live animals remaining in the groups after 30 days of treatment [4, 8]: 18 | Number of live animals remaining in the groups after 30 days of treatment [4, 9]: 7 | Number of live animals remaining in the groups after 30 days of treatment [4, 10]: 0 | Number of live animals remaining in the groups after 30 days of treatment [4, 11]: 0 | mean weight of mice and standard deviation [4, 13]: all animals dead | mean weight of tumor nodules and standard deviation [4, 13]: all animals dead
